Data: the supplement of paper PMC10307832

Assays:
Experiment in all cases: relative viability (nuclei count vs DMSO), 5 days (fraction); higher = more cells survive
[1] = compound: C1/C(=C\C2=CC=CS2)/C(=O)/C(=C/C3=CC=CS3)/C1 + O=C(c1cc(Cc2n[nH]c(=O)c3ccccc23)ccc1F)N1CCN(C(=O)C2CC2)CC1 [Olaparib] (partner 8 µM)
Procedure, shortened: (§1)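 Each reported value is a median over duplicate plates. It expresses relative viability: treated-well nuclei count divided by vehicle-well nuclei count. Lung cancer cell lines in 1536-well plates were dosed by pin tool a day after seeding, alone with one drug or with a fixed anchor-drug dose plus five library-drug doses (not always all listed) in √10 steps, and nuclei were counted after 5 days.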

TPCA-1 + Pictilisib = compound: C1=CC(=CC=C1C2=CC(=C(S2)NC(=O)N)C(=O)N)F [TPCA-1] + CS(=O)(=O)N1CCN(Cc2cc3nc(-c4cccc5[nH]ncc45)nc(N4CCOCC4)c3s2)CC1 [Pictilisib] (partner 1 µM)
Procedure, shortened: as §1

TPCA-1 + Vorinostat = compound: C1=CC(=CC=C1C2=CC(=C(S2)NC(=O)N)C(=O)N)F [TPCA-1] + O=C(CCCCCCC(=O)Nc1ccccc1)NO [Vorinostat] (partner 1 µM)
Procedure, shortened: as §1

[2] = compound: C[C@]12O[C@H](C[C@]1(O)CO)n1c3ccccc3c3c4c(c5c6ccccc6n2c5c31)CNC4=O [Lestaurtinib] + Nc1ncn([C@H]2C[C@H](O)[C@@H](CO)O2)c(=O)n1 [Decitabine] (partner 2 µM)
Procedure, shortened: as §1

UMC-11
relative viability ([1]; first compound 0.2 µM): 0.462
relative viability ([1]; first compound 0.6325 µM): 0.347
relative viability ([1]; first compound 2 µM): 0.405
relative viability ([1]; first compound 6.325 µM): 0.475
relative viability ([1]; first compound 20 µM): 0.391
relative viability (TPCA-1 + Pictilisib; first compound 0.04 µM): 0.781
relative viability (TPCA-1 + Pictilisib; first compound 0.1265 µM): 0.685
relative viability (TPCA-1 + Pictilisib; first compound 0.4 µM): 0.881
relative viability (TPCA-1 + Pictilisib; first compound 1.265 µM): 0.735
relative viability (TPCA-1 + Pictilisib; first compound 4 µM): 0.127
relative viability (TPCA-1 + Vorinostat; first compound 0.04 µM): 0.447
relative viability (TPCA-1 + Vorinostat; first compound 0.1265 µM): 0.358
relative viability (TPCA-1 + Vorinostat; first compound 0.4 µM): 0.368
relative viability (TPCA-1 + Vorinostat; first compound 1.265 µM): 0.378
relative viability (TPCA-1 + Vorinostat; first compound 4 µM): 0.214
relative viability ([2]; first compound 0.005 µM): 0.63
relative viability ([2]; first compound 0.01581 µM): 1.49
relative viability ([2]; first compound 0.05 µM): 0.544
relative viability ([2]; first compound 0.1581 µM): 0.241
relative viability ([2]; first compound 0.5 µM): 0.218
